Measurements published in article PMC8512560, “Design, Synthesis, and Antipoliferative Activities of Novel Substituted Imidazole-Thione Linked Benzotriazole Derivatives” (Molecules, 2021).

Key:
[1] = test system: MCF-7 human breast cancer cell line; experiment: MTT viability assay, MCF-7; assay type: cell-based; conditions: Homo sapiens, MCF7, 72 h, mean ± SD of three independent experiments, read-out: Antiproliferative Activities IC50, MCF-7
Method: (§1) All the human tumour cell lines MCF-7, HL-60, HCT-116, and HUVEC were cultured in Dulbecco’s Modified Eagle’s Medium (DMEM) with 10% fetal bovine serum, 2 mM L-glutamine and 100 µg/mL penicillin/streptomycin. Cells were maintained at 37 °C in 5% CO2 in a humidified incubator. All cells were sub-cultured three times/week by trypsinization using TrypLE Express (1X).
(§2) The Benzotriazole compounds were evaluated for antiproliferative effect using the MTT viability assay of various cancer cell lines (MCF-7, HCT-116 and HL-60) and the normal human umbilical vein endothelial cell line (HUVEC) to calculate the relative IC50 values for each compound. Cells were seeded in triplicate in 96-well plates at a density of 10 × 10^3 cells/mL in a total volume of 200 µL per well. 0.1% of DMSO was used as a vehicle control. After this time, they were treated with 2 µL test compound which had been pre-prepared as stock solutions in ethanol to furnish the concentration range of study, 10 nM to 100 µM, and re-incubated for a further 72 h. The culture medium was then removed, and the cells washed with 100 µL phosphate buffered saline (PBS) and 50 µL MTT added, to reach a final concentration of 1 mg/mL MTT added. Cells were incubated for 2 h in darkness at 37 °C. At this point solubilisation was begun through the addition of […] DMSO and the cells maintained at room temperature in darkness for 20 min to ensure thorough colour diffusion before reading the absorbance. Plates were incubated for 72 h at 37 °C + 5% CO2. The MTT (5 mg/mL in PBS) was added and incubated for another 4 h, and the optical density was detected with a microplate reader at 570 nm. Results were expressed as percentage viability relative to vehicle control (100%). Dose response curves were plotted and IC50 values (concentration of drug resulting in 50% reduction in cell survival) were obtained using the commercial software package Prism (GraphPad Software, Inc., La Jolla, CA, USA). All the experiments were repeated in at least three independent experiments.

[2] = test system: HL-60 human leukemia cancer cell line; experiment: MTT viability assay, HL-60; assay type: cell-based; conditions: Homo sapiens, HL-60, 72 h, mean ± SD of three independent experiments, read-out: Antiproliferative Activities IC50, HL-60
Method: as §1, §2

[3] = test system: HCT-116 human colon cancer cell line; experiment: MTT viability assay, HCT-116; assay type: cell-based; conditions: Homo sapiens, HCT-116, 72 h, mean ± SD of three independent experiments, read-out: Antiproliferative Activities IC50, HCT-116
Method: as §1, §2

bovine brain tubulin = experiment: Tubulin polymerization assay (turbidimetric, kit BK006); assay type: biochemical; conditions: read-out: Anti-Tubulin Activity IC50 ± SD (inhibition of tubulin polymerization)
Method: The assembly of purified bovine tubulin was monitored using a kit, BK006, purchased from Cytoskeleton Inc., (Denver, CO, USA). The assay was carried out in accordance with the manufacturer’s instructions using the standard assay conditions. Briefly, purified ([…]) in a buffer consisting of 80 mM PIPES (pH 6.9), 0.5 mM EGTA, 2 mM MgCl2, 1 mM GTP and 10% glycerol was incubated at 37 °C in the presence of either vehicle (2% (v/v) ddH2O), CA-4, benzotriazole compounds. Light was scattered proportionally to the concentration of polymerized microtubules in the assay. Therefore, the tubulin assembly was monitored turbidimetrically at 340 nm in a Spectramax 340 PC spectrophotometer (Molecular Devices, Sunnyvale, CA, USA). The concentration that inhibits tubulin polymerization by 50% (IC50) was determined using area under the curve (AUC). The AUC of the untreated controls were considered as 100% polymerization. The IC50 value for each compound was computed using GraphPad Prism Software.

HL-60 cells = experiment: Annexin V/PI apoptotic assay by flow cytometry; assay type: cell-based, human; conditions: BI9 1 µM, CA-4 concentration not given, control 1.6%
Method: Apoptotic cell death was detected by flow cytometry using Annexin V and propidium iodide (PI). HL-60 Cells were seeded in 6 well plated at density of 1 × 10^5 cells/mL and treated with vehicle (0.1% (v/v) EtOH), positive control (CA-4) or compound BI9 (1 µM) for 48 and 72 h. Cells were then harvested and prepared for flow cytometric analysis. Cells were washed in 1X binding buffer ([…] binding buffer: 0.1M HEPES, pH 7.4; 1.4 M NaCl; 25 mM CaCl2 diluted in dH2O) and incubated in the dark for 30 min on ice in Annexin V-containing binding buffer [1:100]. Cells were then washed once in binding buffer and then re-suspended in PI-containing binding buffer [1:1000]. Samples were analysed immediately using the BD accuri flow cytometer and prism software for analysis the data. Four populations are produced during the assay Annexin V and PI negative (Q4, healthy cells), Annexin V positive and PI negative (Q3, early apoptosis), Annexin V and PI positive (Q2, late apoptosis) and Annexin V negative and PI positive (Q1, necrosis).

Bcl-2 = experiment: Western blot of Bcl-2 expression in HL-60 cells; assay type: cell-based, human; conditions: HL-60, 0.5 and 1 µM, compared to the untreated group
Method: HL-60 cells were seeded at a density of 1 × 10^5 cells/flask in T25 flasks. […] HL-60 cells were harvested in RIPA buffer supplemented with protease inhibitors (Roche Diagnostics), phosphatase inhibitor cocktail 2 (Sigma-Aldrich), and phosphatase inhibitor cocktail 3 (Sigma-Aldrich). Equal quantities of protein (as determined by a BCA assay) were resolved by SDS-PAGE (12%) followed by transfer to PVDF membranes. Membranes were blocked in 5% bovine serum albumin/TBST for 1 h. Membranes were incubated in the relevant primary antibodies at 4 °C overnight, washed with TBST, and incubated in horseradish peroxidase conjugated secondary antibody for 1 h at rt and washed again. Western blot analysis was performed as described above using antibodies directed against BAX [1:1000] (Cell Signaling Technology), PARP [1:500] (Cell Signaling Technology) and Bcl-2 [1:500] (Cell Signaling Technology) followed by incubation with a horseradish peroxidase-conjugated anti-mouse antibody [1:2000] (Promega, Madison, WI, USA). All blots were probed with β-actin antibody [1:5000] (Sigma) to confirm equal loading. Proteins were detected using enhanced chemiluminescent Western blot detection (Clarity Western ECL substrate) (Bio Rad) on the ChemiDoc MP System (Bio Rad). Experiments were performed on three independent occasions.

[4] = test system: MCF-7, HL-60 and HCT-116 cancer cell lines; experiment: MTT viability assay, values pooled over the cancer cell lines; assay type: cell-based, human; conditions: Homo sapiens, MCF-7, HL-60 and HCT-116; MTT; read-out: IC50 values range over the three cancer cell lines
Method: as §1, §2

SMILES: S=c1[nH]c(-n2nnc3ccccc32)cn1-c1ccc(Cl)cc1Cl [BI9, 4-(1H-Benzo[d][1,2,3]Triazol-1-yl)-1-(2,4-Dichlorophenyl)-1H-Imidazole-2(3H)-Thione]
- IC50 [1]: 3570 ± 160 nM
- IC50 [2]: 400 ± 30 nM
- IC50 [3]: 2630 ± 170 nM
- IC50 (bovine brain tubulin): 520 ± 20 nM
- Total fraction of early and late apoptotic cells (Annexin V positive) (HL-60 cells; 48 h): 21.5%
- Average fraction of Annexin V-staining positive cells (total apoptotic cells) (HL-60 cells; 72 h): 19.2%
- Expression of pro-survival protein Bcl-2 (Bcl-2): down-regulated
- IC50 [4]: 400 to 3300 nM
